Test results: ChEMBL document CHEMBL1128801, “Synthesis and biological evaluation of 14-alkoxymorphinans.12.1 A phenethyl analogue of the -selective opioid receptor antagonist cyprodime” (Bioorg Med Chem Lett, 1995)

Experiments:
Mus musculus [1] = organism: Mus musculus; test: Effective concentration required for in Vitro evaluation of agonist activity on mouse vas deferens preparation; format: functional
Mus musculus [2] = organism: Mus musculus; test: In Vitro evaluation of antagonist activity induced by naloxone on mouse vas deferens preparation; format: functional
Mus musculus [3] = organism: Mus musculus; test: In vitro evaluation of antagonist activity induced by naloxone on mouse vas deferens preparation; format: functional
Cavia porcellus [4] = organism: Cavia porcellus; test: In vitro evaluation of antagonistic activity induced by naloxone in guinea-pig ileum myenteric plexus preparation (GPI); format: functional
Mu-type opioid receptor = Mu-type opioid receptor (Cavia porcellus, UniProt P97266); test: Binding affinity by its ability to displace [3H]DAMGO from mu receptor in homogenates of guinea pig brain; format: tissue-based
Mu-type opioid receptor, sequence (P97266 whole entry): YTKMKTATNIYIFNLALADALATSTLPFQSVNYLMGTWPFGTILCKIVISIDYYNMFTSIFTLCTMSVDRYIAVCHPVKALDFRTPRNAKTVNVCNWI

Cavia porcellus [5] = organism: Cavia porcellus; test: Effective concentration of compound required for in vitro agonist potency in guinea-pig ileum myenteric plexus preparation (GPI); format: functional
Rattus norvegicus = test: Effective dose required for in vivo antinociceptive effect in rat when administered subcutaneously; format: functional; conditions: sc
[6] = molecular target: Kappa-type opioid receptor (Cavia porcellus, UniProt P41144); test: Binding affinity by its ability to displace [3H]-U-69,593 from kappa receptor in homogenates of guinea pig brain; format: tissue-based
Kappa-type opioid receptor, sequence (P41144 whole entry): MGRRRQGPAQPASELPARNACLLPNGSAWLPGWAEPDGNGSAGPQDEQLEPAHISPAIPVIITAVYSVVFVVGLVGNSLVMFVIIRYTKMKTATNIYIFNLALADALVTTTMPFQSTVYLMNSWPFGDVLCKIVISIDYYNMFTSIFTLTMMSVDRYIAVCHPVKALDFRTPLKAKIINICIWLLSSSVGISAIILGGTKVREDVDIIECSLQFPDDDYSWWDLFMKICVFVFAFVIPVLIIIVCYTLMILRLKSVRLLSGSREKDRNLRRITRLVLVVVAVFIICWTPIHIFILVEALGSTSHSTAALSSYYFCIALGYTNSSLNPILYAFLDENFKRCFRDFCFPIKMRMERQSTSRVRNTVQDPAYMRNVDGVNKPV

Mus musculus [7] = organism: Mus musculus; test: Effective concentration of compound required for in vitro agonist activity on mouse vas deferens preparation; format: functional
Cavia porcellus [8] = organism: Cavia porcellus; test: Effective concentration required for in vitro agonist potency in guinea-pig ileum myenteric plexus preparation (GPI); format: functional
Mus musculus [9] = organism: Mus musculus; test: Effective concentration required for in vitro evaluation of agonist activity on mouse vas deferens preparation; format: functional

| SMILES | Ke (Mus musculus [3]) | Ke (Cavia porcellus [4]) | Ki (Mu-type opioid receptor) | ED50 (Rattus norvegicus) | Ki [6] | other results |
| --- | --- | --- | --- | --- | --- | --- |
| CC1(C)SSC(C)(C)[C@@H](NC(=O)[C@@H](N)Cc2ccc(O)cc2)C(=O)NCC(=O)N[C@@H](Cc2ccccc2)C(=O)N[C@H]1C(=O)O |  |  |  |  |  | EC50 (Mus musculus [1]): 2.8 nM; Ke (Mus musculus [2]): 20.4 nM |
| Br.COc1cccc2c1[C@]13CCN(CCc4ccccc4)C(C2)[C@]1(OC)CCC(=O)C3 | 1.67 nM | 0.54 nM | 0.9 nM | 0.037 mg/kg | 690 nM | EC50 (Cavia porcellus [5]): 17.4 nM; EC50 (Mus musculus [7]): 11.8 nM |
| COc1cccc2c1[C@]13CCN(C)[C@H](C2)[C@]1(OC)CCC(=O)C3 |  |  | 0.7 nM | 0.021 mg/kg | 1.5 nM |  |
| COc1cccc2c1[C@]13CCN(CC4CC4)[C@H](C2)[C@]1(OC)CCC(=O)C3 [CYPRODIME BROMIDE] |  |  |  |  | 61.1 nM |  |
| C[C@@H](NC(=O)[C@@H](N)Cc1ccc(O)cc1)C(=O)NCC(=O)N(C)[C@@H](Cc1ccccc1)C(=O)NCCO [DAMGO] | 1.9 nM | 1.6 nM |  |  |  | EC50 (Cavia porcellus [8]): 11.8 nM; EC50 (Mus musculus [9]): 24.7 nM |
| CN1CC[C@]23c4c5ccc(O)c4O[C@H]2[C@@H](O)C=C[C@H]3[C@H]1C5.Cl [MORPHINE HYDROCHLORIDE] |  |  |  | 1.8 mg/kg |  |  |
